Like-named read-outs stand apart in the source and are kept apart here.
What was measured:
[1] = molecular target: GDP-bound NRAS wild-type protein (Homo sapiens, UniProt P01111); experiment: Binding to NRAS by surface plasmon resonance (SPR), Single Cycle Kinetics; conditions: SPR, GDP-bound NRAS wild-type protein vs GDP-bound KRAS wild-type protein
[2] = molecular target: GDP-bound KRAS wild-type protein (Homo sapiens, UniProt P01116); experiment: Binding to KRAS by surface plasmon resonance (SPR), Single Cycle Kinetics; conditions: SPR, Single Cycle Kinetics, GDP-bound KRAS wild-type protein, read-out: KRAS KD
[3] = molecular target: GDP-bound HRAS wild-type protein (Homo sapiens, UniProt P01112); experiment: Binding to HRAS by surface plasmon resonance (SPR), Single Cycle Kinetics; conditions: SPR, GDP-bound HRAS wild-type protein vs GDP-bound KRAS wild-type protein
GDP-bound HRAS wild-type protein, sequence (P01112 whole entry): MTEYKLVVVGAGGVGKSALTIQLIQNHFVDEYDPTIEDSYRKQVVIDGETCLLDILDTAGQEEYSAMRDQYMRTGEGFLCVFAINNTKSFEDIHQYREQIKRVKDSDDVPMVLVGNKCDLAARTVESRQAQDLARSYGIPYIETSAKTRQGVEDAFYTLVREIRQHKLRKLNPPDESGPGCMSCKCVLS

GDP-bound KRAS wild-type protein, sequence (P01116 whole entry): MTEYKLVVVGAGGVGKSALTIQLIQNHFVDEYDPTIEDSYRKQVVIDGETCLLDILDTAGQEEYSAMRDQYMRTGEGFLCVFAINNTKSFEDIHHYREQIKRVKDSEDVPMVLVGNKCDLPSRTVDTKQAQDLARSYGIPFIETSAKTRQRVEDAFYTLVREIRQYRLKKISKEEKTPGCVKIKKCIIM
GDP-bound NRAS wild-type protein, sequence (P01111 whole entry): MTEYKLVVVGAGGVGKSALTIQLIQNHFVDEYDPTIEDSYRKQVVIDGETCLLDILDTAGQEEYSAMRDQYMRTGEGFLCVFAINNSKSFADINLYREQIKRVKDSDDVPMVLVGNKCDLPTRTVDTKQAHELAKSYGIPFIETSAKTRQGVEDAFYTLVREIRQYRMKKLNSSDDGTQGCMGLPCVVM

| Structure (SMILES) | NRAS/KRAS (ratio of KD value for NRAS to KD value for KRAS) [1] | Kd [2] [nM] | HRAS/KRAS (ratio of KD value for HRAS to KD value for KRAS) [3] | NRAS/KRAS (ratio of KD value for NRAS to KD value for KRAS) ([1]; KD ratio class) | Kd ([2]; 1:1 binding model) [nM] | HRAS/KRAS (ratio of KD value for HRAS to KD value for KRAS) ([3]; KD ratio class) |
| --- | --- | --- | --- | --- | --- | --- |
| CC[C@H](C)[C@@H]1NC(=O)[C@H](CC)N(C)C(=O)C[C@@H](C(=O)N(C)C)N(C)C(=O)[C@H](C2CCCC2)N(C)C(=O)C2(CCC2)NC(=O)[C@@H]2C[C@H](OC)CN2C(=O)[C@H](CCc2cc(F)c(C(F)(F)F)c(F)c2)NC(=O)CN(C)C(=O)[C@H](Cc2ccc(C(F)(F)F)cc2)N2CC/C=C\C[C@@H](C2=O)N(C)C(=O)CN(C)C1=O [PP1128, (2S,8S,12S,14S,20S,23S,27S,30S,36S,38Z)-20-cyclopentyl-8-[2-[3,5-difluoro-4-(trifluoromethyl)phenyl]ethyl]-27-ethyl-12-methoxy-N,N,4,19,22,26,32,35-octamethyl-30-[(1S)-1-methylpropyl]-3,6,9,15,18,21,25,28,31,34,42-undecaoxo-2-[[4-(trifluoromethyl)phenyl]methyl]spiro[1,4,7,10,16,19,22,26,29,32,35-undecazatricyclo[34.5.1.0^10,14]dotetracont-38-ene-17,1′-cyclobutane]-23-carboxamide] | AA (a compound having 20 or more is denoted as AA) | 0.12 | A (a compound having 10 or more and less than 20 is denoted as A) | – | – | – |
| CCO[C@@H]1C[C@H]2C(=O)NC3(CCC3)C(=O)N(C)[C@@H](C3CCCC3)C(=O)N(C)[C@H](C(=O)N3C[C@@H](C)O[C@@H](C)C3)CC(=O)N(C)[C@@H](CC(C)C)C(=O)N[C@@H]([C@@H](C)CC)C(=O)N(C)CC(=O)N(C)[C@H]3CCCCCN(C3=O)[C@@H](Cc3ccc(F)cc3)C(=O)N(C)CC(=O)N[C@@H](CCc3ccc(C(F)(F)F)c(Cl)c3)C(=O)N2C1 [PP1153] | B (a compound having 3 or more and less than 10 is denoted as B) | 0.28 | B (a compound having 3 or more and less than 10 is denoted as B) | – | – | – |
| CCCO[C@@H]1C[C@H]2C(=O)NC3(CCC3)C(=O)N(C)[C@@H](C3CCCC3)C(=O)N(C)[C@H](C(=O)N3CCOCC3)CC(=O)N(C)[C@@H](CC(C)C)C(=O)N[C@@H]([C@@H](C)CC)C(=O)N(C)CC(=O)N(C)[C@H]3CCCCCN(C3=O)[C@@H](Cc3ccc(C(F)(F)F)cc3)C(=O)N(C)CC(=O)N[C@@H](CCc3cc(F)c(C(F)(F)F)c(F)c3)C(=O)N2C1 [PP1161] | B (a compound having 3 or more and less than 10 is denoted as B) | 0.6 | B (a compound having 3 or more and less than 10 is denoted as B) | – | – | – |
| CCO[C@@H]1C[C@H]2C(=O)NC3(CCC3)C(=O)N(C)[C@@H](C3CCCC3)C(=O)N(C)[C@H](C(=O)N(C)CC)CC(=O)N(C)[C@@H](CC(C)C)C(=O)N[C@@H]([C@@H](C)CC)C(=O)N(C)CC(=O)N(C)[C@H]3C/C=C\CCN(C3=O)[C@@H](Cc3ccc(C(F)(F)F)cc3)C(=O)N(C)CC(=O)N[C@@H](CCc3cc(F)c(C(F)(F)F)c(F)c3)C(=O)N2C1 [PP1300, (2S,8S,12R,14S,20S,23S,27S,30S,36S,38Z)-20-cyclopentyl-8-[2-[3,5-difluoro-4-(trifluoromethyl)phenyl]ethyl]-12-ethoxy-N-ethyl-27-isobutyl-N,4,19,22,26,32,35-heptamethyl-30-[(1S)-1-methylpropyl]-3,6,9,15,18,21,25,28,31,34,42-undecaoxo-2-[[4-(trifluoromethyl)phenyl]methyl]spiro[1,4,7,10,16,19,22,26,29,32,35-undecazatricyclo[34.5.1.0^10,14]dotetracont-38-ene-17,1′-cyclobutane]-23-carboxamide] | – | – | – | A (a compound having 10 or more and less than 20 is denoted as A) | 0.082 | A (a compound having 10 or more and less than 20 is denoted as A) |
| CCO[C@@H]1C[C@H]2C(=O)NC3(CCC3)C(=O)N(C)[C@@H](C3CCCC3)C(=O)N(C)[C@H](C(=O)N(C)CC)CC(=O)N(C)[C@@H](CC3CC3)C(=O)N[C@@H]([C@@H](C)CC)C(=O)N(C)CC(=O)N(C)[C@H]3C/C=C\CCN(C3=O)[C@@H](Cc3ccc(C(F)(F)F)cc3)C(=O)N(C)CC(=O)N[C@@H](CCc3cc(F)c(C(F)(F)F)c(F)c3)C(=O)N2C1 [PP1301] | – | – | – | A (a compound having 10 or more and less than 20 is denoted as A) | 0.083 | A (a compound having 10 or more and less than 20 is denoted as A) |
| CCO[C@@H]1C[C@H]2C(=O)NC3(CCC3)C(=O)N(C)[C@@H](C3CCCC3)C(=O)N(C)[C@H](C(=O)N(C)CC)CC(=O)N(C)[C@@H](C)C(=O)N[C@@H]([C@@H](C)CC)C(=O)N(C)CC(=O)N(C)[C@H]3C/C=C\CCN(C3=O)[C@@H](Cc3ccc(C(F)(F)F)cc3)C(=O)N(C)CC(=O)N[C@@H](CCc3cc(F)c(C(F)(F)F)c(F)c3)C(=O)N2C1 [PP1302, (2S,8S,12R,14S,20S,23S,27S,30S,36S,38Z)-20-cyclopentyl-8-[2-[3,5-difluoro-4-(trifluoromethyl)phenyl]ethyl]-12-ethoxy-N-ethyl-N,4,19,22,26,27,32,35-octamethyl-30-[(1S)-1-methylpropyl]-3,6,9,15,18,21,25,28,31,34,42-undecaoxo-2-[[4-(trifluoromethyl)phenyl]methyl]spiro[1,4,7,10,16,19,22,26,29,32,35-undecazatricyclo[34.5.1.0^10,14]dotetracont-38-ene-17,1′-cyclobutane]-23-carboxamide] | – | – | – | A (a compound having 10 or more and less than 20 is denoted as A) | 0.057 | A (a compound having 10 or more and less than 20 is denoted as A) |
| CCO[C@@H]1C[C@H]2C(=O)NC3(CCC3)C(=O)N(C)[C@@H](C3CCCC3)C(=O)N(C)[C@H](C(=O)N(C)CC)CC(=O)N(C)[C@@H](CC(F)F)C(=O)N[C@@H]([C@@H](C)CC)C(=O)N(C)CC(=O)N(C)[C@H]3C/C=C\CCN(C3=O)[C@@H](Cc3ccc(C(F)(F)F)cc3)C(=O)N(C)CC(=O)N[C@@H](CCc3cc(F)c(C(F)(F)F)c(F)c3)C(=O)N2C1 [PP1303] | – | – | – | AA (a compound having 20 or more is denoted as AA) | 0.068 | A (a compound having 10 or more and less than 20 is denoted as A) |
| CCC[C@H]1C(=O)N[C@@H]([C@@H](C)CC)C(=O)N(C)CC(=O)N(C)[C@H]2C/C=C\CCN(C2=O)[C@@H](Cc2ccc(C(F)(F)F)cc2)C(=O)N(C)CC(=O)N[C@@H](CCc2cc(F)c(C(F)(F)F)c(F)c2)C(=O)N2C[C@H](OCC)C[C@H]2C(=O)NC2(CCC2)C(=O)N(C)[C@@H](C2CCCC2)C(=O)N(C)[C@H](C(=O)N(C)CC)CC(=O)N1C [PP1304, (2S,8S,12R,14S,20S,23S,27S,30S,36S,38Z)-20-cyclopentyl-8-[2-[3,5-difluoro-4-(trifluoromethyl)phenyl]ethyl]-12-ethoxy-N-ethyl-N,4,19,22,26,32,35-heptamethyl-30-[(1S)-1-methylpropyl]-3,6,9,15,18,21,25,28,31,34,42-undecaoxo-27-propyl-2-[[4-(trifluoromethyl)phenyl]methyl]spiro[1,4,7,10,16,19,22,26,29,32,35-undecazatricyclo[34.5.1.0^10,14]dotetracont-38-ene-17,1′-cyclobutane]-23-carboxamide] | – | – | – | A (a compound having 10 or more and less than 20 is denoted as A) | 0.07 | A (a compound having 10 or more and less than 20 is denoted as A) |
| CCO[C@@H]1C[C@H]2C(=O)NC3(CCC3)C(=O)N(C)[C@@H](C3CCCC3)C(=O)N(C)[C@H](C(=O)N(CC)CC)CC(=O)N(C)[C@@H](CC)C(=O)N[C@@H]([C@@H](C)CC)C(=O)N(C)CC(=O)N(C)[C@H]3C/C=C\CCN(C3=O)[C@@H](Cc3ccc(C(F)(F)F)cc3)C(=O)N(C)CC(=O)N[C@@H](CCc3cc(F)c(C(F)(F)F)c(F)c3)C(=O)N2C1 [PP1305, (2S,8S,12R,14S,20S,23S,27S,30S,36S,38Z)-20-cyclopentyl-8-[2-[3,5-difluoro-4-(trifluoromethyl)phenyl]ethyl]-12-ethoxy-N,N,27-triethyl-4,19,22,26,32,35-hexamethyl-30-[(1S)-1-methylpropyl]-3,6,9,15,18,21,25,28,31,34,42-undecaoxo-2-[[4-(trifluoromethyl)phenyl]methyl]spiro[1,4,7,10,16,19,22,26,29,32,35-undecazatricyclo[34.5.1.0^10,14]dotetracont-38-ene-17,1′-cyclobutane]-23-carboxamide] | – | – | – | AA (a compound having 20 or more is denoted as AA) | 0.12 | A (a compound having 10 or more and less than 20 is denoted as A) |
| CCO[C@@H]1C[C@H]2C(=O)NC3(CCC3)C(=O)N(C)[C@@H](C3CCCC3)C(=O)N(C)[C@H](C(=O)N(CC)CC)CC(=O)N(C)[C@@H](CC(C)C)C(=O)N[C@@H]([C@@H](C)CC)C(=O)N(C)CC(=O)N(C)[C@H]3C/C=C\CCN(C3=O)[C@@H](Cc3ccc(C(F)(F)F)cc3)C(=O)N(C)CC(=O)N[C@@H](CCc3cc(F)c(C(F)(F)F)c(F)c3)C(=O)N2C1 [PP1306] | – | – | – | AA (a compound having 20 or more is denoted as AA) | 0.2 | A (a compound having 10 or more and less than 20 is denoted as A) |
